{"source": "patent US5219884A", "about": "“Immunosuppressant” (Taito Co., Ltd., priority 1990, dated 1993)", "key": {"[1]": {"test_system": "allo-reactive cytotoxic T cells (EL4 target cells)", "experiment": "suppression of allo-reactive cytotoxic T cells induced by immunization of mouse with allogenic cells", "assay_type": "in vivo", "details": "0.1 mg/kg/day i.p., 6 times", "experimental": "Male BALB/c mice were immunized with spleen cells of C57BL/6 mice (5×10^7 cells/mouse, intraperitoneal administration), and ISP-I in Example 1 was administered intraperitoneally 6 times at the doses of 0.1 mg/kg/day from the next day of immunization. Eight days after immunization, the spleen was resected to prepare effector cells, with which the ^51 Cr release test was carried out as in Experimental Example 3, using EL4 cells as the target cells to measure the cytotoxic activity."}, "[2]": {"test_system": "interleukin 2 receptor (IL-2R, Tac) expression in mouse allogenic MLC", "experiment": "suppression of induction of IL-2R (Tac) expression in mouse allogenic MLC", "assay_type": "cell-based", "experimental": "Mouse allogenic MLC and PHA-stimulated mouse spleen cells were prepared in the same as in Experimental Example 3.\nThe IL-2R (Tac) induced in mouse allogenic MLC and PHA-stimulated mouse spleen cells was assayed as follows:\nAfter culturing the mouse allogenic MLC and the PHA-stimulated mouse spleen cells at 37° C. in an atmosphere of 5% carbon dioxide for 24 hours, the cells were collected by centrifugation (1000 rpm, 5 minutes, 4° C.), and about 10^6 cells were cultured in 10 μl of phosphate buffered saline (PBS), to which 0.02% sodium azide-containing rat anti-mouse IL-2R monoclonal antibody (manufactured by Boehringer Co., 40 μg/ml) had been added, for 30 minutes with ice-cooling. After washing three times with ice-cooled PBS containing 0.02% sodium azide, 50 μl of fluorescein isothiocyanate (FITC)-labeled goat anti-rat immunoglobulin G antibody was added and cultured for 30 minutes with ice-cooling. To the cell pellet after washing three times with ice-cooled 0.02% sodium azide-added PBS was added, a few drops of PBS containing 0.2% sodium azide and 50% glycerin. Prepared specimens on non-fluorescent slide glasses were made and the IL-2R positive cells were counted under a fluorescent microscope to determine the ratio of numbers of IL-2R positive cells in the total numbers of the cells."}, "[3]": {"test_system": "interleukin 6 (IL6) response of mouse spleen cells", "experiment": "suppression of interleukin 6 (IL6) response of mouse spleen cells (plaque assay)", "assay_type": "cell-based", "experimental": "The spleen was resected from 8-week-old male BALB/c mice, and single cell suspension in the serum-free RPMI1640 culture medium was prepared, and thereafter cell pellets were obtained by centrifugation (1000 rpm, 5 minutes) of the suspension. Then a mixture of 9 parts of a 0.16 M ammonium chloride solution and 1 part of a 0.17 M Tris solution (pH 7.65) was added to lyse red blood cells, and the suspension was washed three times with the serum-free RPMI1640 culture medium. The obtained cells were suspended to the concentration of 5×10^6 cells/ml in the RPMI1640 culture medium supplemented with 20% FCS, 5×10^-5 M 2-mercaptoethanol, 2×10^-3 M L glutamine, 1×10^-3 sodium pyruvate and 25% of the supernatant of the culture of T24 human bladder carcinoma cell line as a source of interluekin 6. One hundred μl of this cell suspension and 100 μl of the test substance were mixed in each well of 96-well microculture plates, and cultured at 37° C. in an atmosphere of 5% carbon dioxide for 72 hours. After termination of the culture, 50 μl of the cell suspension was collected from each well. Three hundred μl of the RPMI1640 culture medium supplemented with 0.7% agarose gel, 20 μl of physiological saline containing 40% protein A-bound sheep red blood cells and 20 μl of 300-fold dilution of anti-mouse IgG anti-serum diluted in physiological saline were mixed in a test tube, and extended uniformly on Rohduck plates (Falcon Co. 1034). After gel formation by keeping still at room temperature for a few minutes, the plates were cultured at 37° C. in an atmosphere of 5% carbon dioxide for about 4 hours.\nThree hundred μl of a 40-fold dilution of guinea pig complement in the serum-free RPMI1640 culture medium was added to each plate, which was then incubated for further 2 hours. The number of plaques formed was counted under stereoscopic microscope.\nSD in the Table means standard deviation. The percent suppression (%) was calculated by the following formula. [formula]"}, "[4]": {"test_system": "interleukin 1 (IL1) response of mouse thymocytes", "experiment": "suppression of interleukin 1 (IL1) response of mouse thymocytes", "assay_type": "cell-based", "details": "PHA + IL1", "experimental": "The thymus was resected from 7-week-old male C3H/HeN mice, and single cell suspension was prepared using the serum-free RPMI1640 culture medium. After three times washing with the medium, the cells were suspended to a concentration of 1.5×10^7 cells/ml in the RPMI1640 culture medium supplemented with 20% fetal calf serum, 5×10^-5 M 2-mercaptoethanol, 2×10^-3 M L-glutamine, 1×10^-3 M sodium pyruvate, 1 μg/ml of phytohemagglutinin (PHA, Wellcome Co., HA16/17) and 2 units/ml of human ultrapure interleukin 1 (Genzyme Co., GUPi-1). One hundred μl of this cell suspension and 100 μl of the solution containing ISP-I were mixed in each well of the 96-well flat-bottomed microculture plate, cultured at 37° C. in an atmosphere of 5% carbon dioxide for 66 hours, and cultured for further 6 hours after addition of 0.5 μCi/well of ^3 H-thymidine. After termination of the culture, the cells in each well were harvested onto a filter by a multiple cell harvester, and the radioactivity incorporated into the cells was measured by liquid scintillation method using a toluene-base scintillator.\nIn the table, SD means standard deviation. The percent suppression (%) was calculated by the following formulation. [formula]"}}}
{"compound": "CCCCCCC(=O)CCCCCC/C=C/CC(O)C(O)C(N)(CO)C(=O)O", "note": "(centres unmarked) [Example 1]", "values": [{"measurement": "Amount of 51Cr release", "setting": "[1]; effector:target 25:1", "result": 1046, "unit": "cpm"}, {"measurement": "Cytotoxic activity", "setting": "[1]; effector:target 25:1", "result": 5, "unit": "%"}, {"measurement": "Amount of 51Cr release", "setting": "[1]; effector:target 50:1", "result": 1258, "unit": "cpm"}, {"measurement": "Cytotoxic activity", "setting": "[1]; effector:target 50:1", "result": 8, "unit": "%"}, {"measurement": "Amount of 51Cr release", "setting": "[1]; effector:target 100:1", "result": 1543, "unit": "cpm"}, {"measurement": "Cytotoxic activity", "setting": "[1]; effector:target 100:1", "result": 13, "unit": "%"}, {"measurement": "IL-2R positive cells", "setting": "[2]; 0.001 μg/ml", "result": 22.4, "unit": "%"}, {"measurement": "IL-2R positive cells", "setting": "[2]; 0.01 μg/ml", "result": 17.6, "unit": "%"}, {"measurement": "IL-2R positive cells", "setting": "[2]; 0.1 μg/ml", "result": 13.1, "unit": "%"}, {"measurement": "IL-2R positive cells", "setting": "[2]; 1 μg/ml", "result": 11.4, "unit": "%"}, {"measurement": "inhibition at 0.001 µg/mL", "setting": "[2]; Mus musculus, 24 h, 0.001 μg/ml", "result": 8.2, "unit": "%"}, {"measurement": "inhibition at 0.01 µg/mL", "setting": "[2]; Mus musculus, 24 h, 0.01 μg/ml", "result": 27.9, "unit": "%"}, {"measurement": "inhibition at 0.1 µg/mL", "setting": "[2]; Mus musculus, 24 h, 0.1 μg/ml", "result": 44.3, "unit": "%"}, {"measurement": "inhibition at 1 µg/mL", "setting": "[2]; Mus musculus, 24 h, 1 μg/ml", "result": 53.3, "unit": "%"}, {"measurement": "Number of plaque", "setting": "[3]; 0.002 μg/ml", "result": "130 ± 4 plaque/1 × 10^6 cells ± SD"}, {"measurement": "Number of plaque", "setting": "[3]; 0.02 μg/ml", "result": "108 ± 10 plaque/1 × 10^6 cells ± SD"}, {"measurement": "Number of plaque", "setting": "[3]; 0.2 μg/ml", "result": "78 ± 6 plaque/1 × 10^6 cells ± SD"}, {"measurement": "Number of plaque", "setting": "[3]; 2 μg/ml", "result": "60 ± 8 plaque/1 × 10^6 cells ± SD"}, {"measurement": "inhibition at 0.002 µg/mL", "setting": "[3]; Mus musculus, 72 h, 0.002 μg/ml", "result": 39.2, "unit": "%"}, {"measurement": "inhibition at 0.02 µg/mL", "setting": "[3]; Mus musculus, 72 h, 0.02 μg/ml", "result": 50.5, "unit": "%"}, {"measurement": "inhibition at 0.2 µg/mL", "setting": "[3]; Mus musculus, 72 h, 0.2 μg/ml", "result": 66, "unit": "%"}, {"measurement": "inhibition at 2 µg/mL", "setting": "[3]; Mus musculus, 72 h, 2 μg/ml", "result": 75.3, "unit": "%"}, {"measurement": "inhibition at 0.2 µg/mL", "setting": "[4]; Mus musculus, Thymocyte, 72 h, 0.2 μg/ml", "result": 83.9, "unit": "%"}, {"measurement": "inhibition at 2 µg/mL", "setting": "[4]; Mus musculus, Thymocyte, 72 h, 2 μg/ml", "result": 91.8, "unit": "%"}, {"measurement": "3H-thymidine uptake", "setting": "[4]; 0.2 μg/ml", "result": "4646 ± 826 cpm ± SD"}, {"measurement": "3H-thymidine uptake", "setting": "[4]; 2 μg/ml", "result": "3973 ± 39 cpm ± SD"}]}
